Source: ChEMBL document CHEMBL1201862, “PubChem BioAssay data set” (2004)
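Cultured in 96-well plates, cells were exposed to test compound for 48 hours across five concentrations. The concentration for 50% growth inhibition is given as GI50.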 Activity calls are given as the source filed them. No stated cut-off is given here; in the data, active = GI50 up to about 1.1 µM and inactive = higher.

Assays:
Experiment in all cases: inhibition of tumour cell growth, NCI panel, 48 h
[1] = system: 786-0
[2] = system: A498
[3] = system: A549
[4] = system: ACHN
[5] = system: CAKI-1
[6] = system: CCRF-CEM
[7] = system: COLO 205
[8] = system: DLD-1
[9] = system: DMS-114
[10] = system: EKVX
[11] = system: HCT-116
[12] = system: HCT-15
[13] = system: HOP-18
[14] = system: HOP-92
[15] = system: HT-29
[16] = system: IGROV-1
[17] = system: K562
[18] = system: KM-20L2
[19] = system: KM12
[20] = system: LOX IMVI
[21] = system: LXFL 529
[22] = system: M14
[23] = system: M19-MEL
[24] = system: MOLT-4
[25] = system: Malme-3M
[26] = system: NCI-H23
[27] = system: NCI-H460
[28] = system: NCI-H522
[29] = system: OVCAR-3
[30] = system: OVCAR-4
[31] = system: OVCAR-5
[32] = system: OVCAR-8
[33] = system: RPMI-8226
[34] = system: RXF 393
[35] = system: RXF 631
[36] = system: SF-268
[37] = system: SF-539
[38] = system: SK-MEL-28
[39] = system: SK-MEL-2
[40] = system: SK-MEL-5
[41] = system: SK-OV-3
[42] = system: SN12C
[43] = system: SNB-19
[44] = system: SNB-75
[45] = system: SNB-78
[46] = system: SW-620
[47] = system: TK-10
[48] = system: U-251
[49] = system: UACC-257
[50] = system: UACC-62
[51] = system: UO-31
[52] = system: XF498
[53] = system: DMS-273
[54] = system: HCC 2998
[55] = system: HL-60
[56] = system: HOP-62
[57] = system: NCI-H226
[58] = system: SF-295

## COc1ccccc1/C=C(\NC(=O)c1ccccc1)c1nc2ccccc2[nH]1
[1]
  GI50: 40.1 µM (inactive)
[2]
  GI50: 56 µM (inactive)
[3]
  GI50: 46.8 µM (inactive)
[4]
  GI50: 36.6 µM (inactive)
[5]
  GI50: 87.3 µM (inactive)
[6]
  GI50: 40.6 µM (inactive)
[7]
  GI50: 28.8 µM (inactive)
[8]
  GI50: 37.3 µM (inactive)
[9]
  GI50: 29.4 µM (inactive)
[10]
  GI50: 34.7 µM (inactive)
[11]
  GI50: 34 µM (inactive)
[12]
  GI50: > 100 µM
[13]
  GI50: 46.3 µM (inactive)
[14]
  GI50: 28.9 µM (inactive)
[15]
  GI50: 44.1 µM (inactive)
[16]
  GI50: 32.8 µM (inactive)
[17]
  GI50: 32.9 µM (inactive)
[18]
  GI50: 59.8 µM (inactive)
[19]
  GI50: 32.6 µM (inactive)
[20]
  GI50: 52.4 µM (inactive)
[21]
  GI50: 29.9 µM (inactive)
[22]
  GI50: 39.8 µM (inactive)
[23]
  GI50: 38.3 µM (inactive)
[24]
  GI50: 36.7 µM (inactive)
[25]
  GI50: 95.7 µM (inactive)
[26]
  GI50: 33.2 µM (inactive)
[27]
  GI50: 50.8 µM (inactive)
[28]
  GI50: 30.3 µM (inactive)
[29]
  GI50: 44.5 µM (inactive)
[30]
  GI50: 35 µM (inactive)
[31]
  GI50: > 100 µM (inactive)
[32]
  GI50: 38 µM (inactive)
[33]
  GI50: 17.6 µM (inactive)
[34]
  GI50: 76.6 µM (inactive)
[35]
  GI50: > 100 µM (inactive)
[36]
  GI50: 37.3 µM (inactive)
[37]
  GI50: 53.7 µM (inactive)
[38]
  GI50: 36.9 µM (inactive)
[39]
  GI50: 27.4 µM (inactive)
[40]
  GI50: 23.3 µM (inactive)
[41]
  GI50: 51.1 µM (inactive)
[42]
  GI50: 48.8 µM (inactive)
[43]
  GI50: 34 µM (inactive)
[44]
  GI50: 31.5 µM (inactive)
[45]
  GI50: 53.3 µM (inactive)
[46]
  GI50: 47 µM (inactive)
[47]
  GI50: 39 µM (inactive)
[48]
  GI50: 47.2 µM (inactive)
[49]
  GI50: 31 µM (inactive)
[50]
  GI50: 45 µM (inactive)
[51]
  GI50: 63.8 µM (inactive)
[52]
  GI50: 36.1 µM (inactive)

## CCOC(=O)C(C)(c1cn(C)c2ccccc12)c1cn(C)c2ccccc12
[1]
  GI50: 69.2 µM (inactive)
[2]
  GI50: > 100 µM (inactive)
[3]
  GI50: 81.5 µM (inactive)
[4]
  GI50: 77.1 µM (inactive)
[5]
  GI50: 41.6 µM (inactive)
[6]
  GI50: > 100 µM (inactive)
[8]
  GI50: > 100 µM (inactive)
[9]
  GI50: 79.6 µM (inactive)
[53]
  GI50: > 100 µM (inactive)
[10]
  GI50: > 100 µM (inactive)
[54]
  GI50: > 100 µM (inactive)
[11]
  GI50: 34.3 µM (inactive)
[12]
  GI50: > 100 µM
[55]
  GI50: > 100 µM (inactive)
[56]
  GI50: 76.2 µM (inactive)
[15]
  GI50: > 100 µM (inactive)
[16]
  GI50: > 100 µM (inactive)
[17]
  GI50: 66.2 µM (inactive)
[18]
  GI50: > 100 µM (inactive)
[19]
  GI50: > 100 µM (inactive)
[21]
  GI50: > 100 µM (inactive)
[22]
  GI50: > 100 µM (inactive)
[23]
  GI50: > 100 µM (inactive)
[24]
  GI50: > 100 µM (inactive)
[25]
  GI50: 67.3 µM (inactive)
[57]
  GI50: 30.6 µM (inactive)
[26]
  GI50: 44.7 µM (inactive)
[27]
  GI50: > 100 µM (inactive)
[29]
  GI50: 45.8 µM (inactive)
[30]
  GI50: 32.5 µM (inactive)
[31]
  GI50: > 100 µM (inactive)
[32]
  GI50: 52.2 µM (inactive)
[33]
  GI50: > 100 µM (inactive)
[34]
  GI50: 44.5 µM (inactive)
[35]
  GI50: 50.8 µM (inactive)
[58]
  GI50: 24.5 µM (inactive)
[37]
  GI50: 49.7 µM (inactive)
[38]
  GI50: > 100 µM (inactive)
[39]
  GI50: > 100 µM (inactive)
[40]
  GI50: > 100 µM (inactive)
[41]
  GI50: > 100 µM (inactive)
[44]
  GI50: 19 µM (inactive)
[45]
  GI50: 70 µM (inactive)
[46]
  GI50: > 100 µM (inactive)
[47]
  GI50: 83.9 µM (inactive)
[48]
  GI50: 57.5 µM (inactive)
[49]
  GI50: > 100 µM (inactive)
[50]
  GI50: 87.9 µM (inactive)
[51]
  GI50: > 100 µM (inactive)
[52]
  GI50: 32.3 µM (inactive)
